Laboratory results: PubChem BioAssay (NCI)
Values joined by “and” are separate entries in the source; they are usually repeats but may differ in a detail not shown here. Equal entries are not always repeated.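 Results reflect a 48-hour exposure of cells in 96-well plates to compound at five concentrations. At the GI50, growth is halved. TGI: total growth inhibition.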

How the values were obtained:
Assay in all cases: DTP human tumour cell line panel, 48 h
HCT-15 colon = test system: HCT-15 colon
SK-MEL-28 melanoma = test system: SK-MEL-28 melanoma
OVCAR-5 ovarian = test system: OVCAR-5 ovarian
COLO 205 colon = test system: COLO 205 colon
RPMI-8226 leukemia = test system: RPMI-8226 leukemia
HL-60(TB) leukemia = test system: HL-60(TB) leukemia
HS 578T breast = test system: HS 578T breast
SNB-75 CNS = test system: SNB-75 CNS
UACC-62 melanoma = test system: UACC-62 melanoma
NCI/ADR-RES ovarian = test system: NCI/ADR-RES ovarian

Compound	GI50 (HCT-15 colon) [µM]	TGI (HCT-15 colon)	GI50 (SK-MEL-28 melanoma) [µM]	TGI (SK-MEL-28 melanoma) [µM]	GI50 (OVCAR-5 ovarian) [µM]	TGI (OVCAR-5 ovarian) [µM]	GI50 (COLO 205 colon) [µM]	TGI (COLO 205 colon) [µM]	GI50 (RPMI-8226 leukemia) [µM]	TGI (RPMI-8226 leukemia)	GI50 (HL-60(TB) leukemia) [µM]	TGI (HL-60(TB) leukemia)	GI50 (HS 578T breast) [µM]	TGI (HS 578T breast) [µM]	GI50 (SNB-75 CNS)	TGI (SNB-75 CNS)	TGI (UACC-62 melanoma) [µM]	GI50 (NCI/ADR-RES ovarian) [µM]	TGI (NCI/ADR-RES ovarian) [µM]	GI50 (UACC-62 melanoma) [µM]
CC(=O)Oc1ccccc1C(=O)NCCC[Se]C#N	2.08	5.06 µM	1.89	4.82	2.78	6.91	12.8	29.9	2.41	6.04 µM	2.09	5.49 µM	2.12	6.8	1.88 µM	4.92 µM				
Cc1cccc(C)c1NC(=O)CCCC(=O)C(C#N)c1ccc(Cl)cc1 (stereo not given)		> 100 µM		> 100		> 100		> 100		> 100 µM		> 100 µM				> 100 µM	> 100			
NC1=NCC(c2ccccn2)C1c1ccc(F)cc1 (stereo not given)				> 100		> 100		> 100		> 100 µM						> 100 µM	> 100			
O=[N+]([O-])c1ccc2nc3ccscc-3c2c1		> 100 µM		> 100		> 100		34.8		44.1 µM		30.4 µM					65.6			
COc1ccc(C2N3CCCCC3[C@@H]3c4[nH]c5ccccc5c4CCN23)c(OC)c1 (stereo not given in full)		> 100 µM		36.9		79.7		43.2		45.6 µM		42 µM					31			
Cc1cccc2cc3cccc(C(=O)NCCN(C)C)c3nc12		1.5 µM		2.21		1.63		1.75				1.15 µM				0.825 µM	0.386			
Cc1nnc2n1N=C(c1ccc(-c3ccc([N+](=O)[O-])cc3)o1)CS2		> 100 µM		> 100		> 100		> 100		> 100 µM		> 100 µM				> 100 µM	> 100			
C=C[Si](C)(C)COC(=O)/C(C#N)=C/C=C/c1ccccc1		> 100 µM		> 100		> 100		> 100		> 100 µM		> 100 µM				94 µM	> 100			
NC(=NCCO)c1ccc(N2CCCN(c3ccc(C(N)=NCCO)cc3)CC2)cc1	> 100	> 100 µM	> 100	> 100	> 100	> 100	> 100	> 100							> 100 µM	> 100 µM	> 100	> 100	> 100	> 100
CN(C)CCC(=O)N1CCc2c([nH]c3ccccc23)C1c1cccnc1 (stereo not given)		> 100 µM		> 100		> 100				> 100 µM		> 100 µM				> 100 µM	> 100			
CCCC(=O)O[C@]1(C)CC[C@@H]2[C@H]3[C@@H]1[C@@H]1C/C(C)=C\CC[C@](C)(OC(=O)[C@@H]2C)[C@H]3O1	44.4	> 100 µM	78.5	> 100	38.2	> 100	43.2	> 100	15.9	37.6 µM			40	> 100	> 100 µM	> 100 µM	> 100			24.4
NCCn1cnc2nc(NC(=O)c3ccccc3)[nH]c(=O)c21		> 100 µM		> 100		> 100		> 100		> 100 µM		> 100 µM				> 100 µM				
COc1cccc2c1C(=O)c1c(O)c3c(c(O)c1C2=O)C[C@@](O)(C(C)=O)C[C@@H]3OC1CC(O)C(O)C(C)O1 (stereo not given in full)		9.84 µM and 14.6 µM		25				27		5.5 µM and 8.53 µM		1.94 µM and 1.2 µM		6.93				0.000214		
C[CH2][Ge]([CH2]C)([CH2]C)[O]C(=O)C([O][Ge]([CH2]C)([CH2]C)[CH2]C)c1ccccc1 (stereo not given)	14	30 µM	24.6	> 100	16.3	74.1	22.1	55.7	11.2	> 100 µM	14.7	38.9 µM			18.3 µM	62.7 µM	30.7			14.5
O=C(Nc1ccccc1[N+](=O)[O-])C(=O)C(C(=O)c1ccccc1-c1ccccc1)C1OC(=O)c2ccccc21 (stereo not given)		30 µM		37.7		36.8		32.6		78.3 µM		47.6 µM				53.4 µM	32.8			
COC1C(O)CC(OC2CC(OC3CC(O[C@@H]4C(=O)c5c(cc6cc(OC7CC(OC8CC(O)C(O)C(C)O8)C(O)C(C)O7)c(C)c(O)c6c5O)C[C@H]4[C@H](OC)C(=O)[C@@H](O)[C@@H](C)O)OC(C)C3O)OC(C)C2O)OC1C (stereo not given in full)		22 µM		0.0224		0.564		0.0921		0.383 µM	< 0.0215	1.57 µM				0.447 µM	0.265			
C/C(=C1/N=C(c2ccccc2)OC1=O)c1ccccc1		> 100 µM		> 100		> 100		> 100		68.4 µM		> 100 µM		> 100		> 100 µM	> 100			
COc1cc(/C=C2\NC(=S)C3Cc4c(OC)c(C)c(OC)c(OC)c4C2N3C)c(OC)c(C)c1OC (stereo not given)				> 100		> 100		35.2		> 100 µM		67.6 µM				> 100 µM	> 100			
COc1ccccc1Nc1nc2ccccc2c2occc12	10.5	27 µM	8.3	40.2	19.4	39.2	12.6	> 50	20.6	> 50 µM	20.5	> 50 µM	22.1	49			26.4	13.8	32.4	10.1
CC(=O)OCC1OC(n2c(=S)n(-c3ccccc3)c(=O)c3cc(Br)ccc32)C(OC(C)=O)C(OC(C)=O)C1OC(C)=O (stereo not given)		> 100 µM		> 100		> 100		> 100		> 100 µM		> 100 µM			33.8 µM and > 100 µM	99.2 µM and > 100 µM	> 100			
Cc1cc(Cl)ccc1N1C(=O)C(=O)C(c2nc3ccccc3o2)C(=O)C1=O		> 100 µM		> 100				> 100				> 100 µM				> 100 µM	> 100			
